Experimental data from ChEMBL document CHEMBL1201862, “PubChem BioAssay data set” (2004).
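Where inhibition never reached the appropriate level, the endpoint shown equals the highest concentration tested. Otherwise, values were interpolated linearly from a five-concentration, 48-hour dose response in 96-well plates. GI50 marks 50% less growth.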 Activity calls are given as the source filed them. No stated cut-off is given here; in the data, active = GI50 up to about 1.1 µM and inactive = higher.

How the values were obtained:
Assay in all cases: DTP human tumour cell line panel, 48 h
786-0 = tested on: 786-0
A498 = tested on: A498
A549 = tested on: A549
ACHN = tested on: ACHN
CAKI-1 = tested on: CAKI-1
CCRF-CEM = tested on: CCRF-CEM
COLO 205 = tested on: COLO 205
DLD-1 = tested on: DLD-1
DMS-114 = tested on: DMS-114
DMS-273 = tested on: DMS-273
EKVX = tested on: EKVX
HCC 2998 = tested on: HCC 2998
HCT-116 = tested on: HCT-116
HL-60 = tested on: HL-60
HOP-18 = tested on: HOP-18
HOP-62 = tested on: HOP-62
HOP-92 = tested on: HOP-92
HT-29 = tested on: HT-29
IGROV-1 = tested on: IGROV-1
K562 = tested on: K562
KM-20L2 = tested on: KM-20L2
KM12 = tested on: KM12
LOX IMVI = tested on: LOX IMVI
LXFL 529 = tested on: LXFL 529
M14 = tested on: M14
M19-MEL = tested on: M19-MEL
Malme-3M = tested on: Malme-3M
NCI-H226 = tested on: NCI-H226
NCI-H23 = tested on: NCI-H23
NCI-H460 = tested on: NCI-H460
NCI-H522 = tested on: NCI-H522
OVCAR-3 = tested on: OVCAR-3
OVCAR-4 = tested on: OVCAR-4
OVCAR-5 = tested on: OVCAR-5
OVCAR-8 = tested on: OVCAR-8
RPMI-8226 = tested on: RPMI-8226
RXF 393 = tested on: RXF 393
RXF 631 = tested on: RXF 631
SF-268 = tested on: SF-268
SF-295 = tested on: SF-295
SF-539 = tested on: SF-539
SK-MEL-28 = tested on: SK-MEL-28
SK-MEL-5 = tested on: SK-MEL-5
SK-OV-3 = tested on: SK-OV-3
SN12C = tested on: SN12C
SNB-19 = tested on: SNB-19
SNB-75 = tested on: SNB-75
SNB-78 = tested on: SNB-78
SW-620 = tested on: SW-620
TK-10 = tested on: TK-10
U-251 = tested on: U-251
UACC-257 = tested on: UACC-257
UACC-62 = tested on: UACC-62
UO-31 = tested on: UO-31
XF498 = tested on: XF498
MOLT-4 = tested on: MOLT-4
SK-MEL-2 = tested on: SK-MEL-2
SR = tested on: SR

c1ccc(P(=Nc2ccccc2N=P(c2ccccc2)(c2ccccc2)c2ccccc2)(c2ccccc2)c2ccccc2)cc1
GI50 (786-0): 0.555 µM (active)
GI50 (A498): 0.986 µM (active)
GI50 (A549): 0.305 µM (active)
GI50 (ACHN): 0.869 µM (active)
GI50 (CAKI-1): 0.444 µM (active)
GI50 (CCRF-CEM): 1.3 µM (inactive)
GI50 (COLO 205): 1.65 µM (inactive)
GI50 (DLD-1): 1.47 µM (inactive)
GI50 (DMS-114): 0.405 µM (active)
GI50 (DMS-273): 0.309 µM (active)
GI50 (EKVX): 1.21 µM (inactive)
GI50 (HCC 2998): 0.942 µM (active)
GI50 (HCT-116): 0.593 µM (active)
GI50 (HL-60): 1.08 µM (active)
GI50 (HOP-18): 0.172 µM (active)
GI50 (HOP-62): 0.558 µM (active)
GI50 (HOP-92): 0.178 µM (active)
GI50 (HT-29): 1.3 µM (inactive)
GI50 (IGROV-1): 0.498 µM (active)
GI50 (K562): 1.09 µM (active)
GI50 (KM-20L2): 1.38 µM (inactive)
GI50 (KM12): 0.834 µM (active)
GI50 (LOX IMVI): 0.612 µM (active)
GI50 (LXFL 529): 0.337 µM (active)
GI50 (M14): 1.44 µM (inactive)
GI50 (M19-MEL): 0.818 µM (active)
GI50 (Malme-3M): 0.256 µM (active)
GI50 (NCI-H226): 0.337 µM (active)
GI50 (NCI-H23): 0.337 µM (active)
GI50 (NCI-H460): 0.528 µM (active)
GI50 (NCI-H522): 0.274 µM (active)
GI50 (OVCAR-3): 0.164 µM (active)
GI50 (OVCAR-4): 1.25 µM (inactive)
GI50 (OVCAR-5): 1.53 µM (inactive)
GI50 (OVCAR-8): 0.364 µM (active)
GI50 (RPMI-8226): 1.74 µM (inactive)
GI50 (RXF 393): 1.05 µM (active)
GI50 (RXF 631): 1.34 µM (inactive)
GI50 (SF-268): > 100 µM (inactive)
GI50 (SF-295): 1.11 µM (active)
GI50 (SF-539): 1.16 µM (inactive)
GI50 (SK-MEL-28): > 100 µM (inactive)
GI50 (SK-MEL-5): 0.401 µM (active)
GI50 (SK-OV-3): 0.327 µM (active)
GI50 (SN12C): 0.293 µM (active)
GI50 (SNB-19): 0.333 µM (active)
GI50 (SNB-75): 0.371 µM (active)
GI50 (SNB-78): 0.489 µM (active)
GI50 (SW-620): 3.07 µM (inactive)
GI50 (TK-10): 0.54 µM (active)
GI50 (U-251): 0.326 µM (active)
GI50 (UACC-257): 0.386 µM (active)
GI50 (UACC-62): 0.562 µM (active)
GI50 (UO-31): 2.31 µM (inactive)
GI50 (XF498): 0.208 µM (active)

[N-]=[N+]=NC12CC3C4CC5CC3C(C1)C(C5)C4C2
GI50 (786-0): > 100 µM (inactive)
GI50 (A498): > 100 µM (inactive)
GI50 (A549): > 100 µM (inactive)
GI50 (ACHN): > 100 µM (inactive)
GI50 (CAKI-1): > 100 µM (inactive)
GI50 (CCRF-CEM): > 100 µM (inactive)
GI50 (COLO 205): > 100 µM (inactive)
GI50 (DLD-1): > 100 µM (inactive)
GI50 (DMS-114): > 100 µM (inactive)
GI50 (DMS-273): > 100 µM (inactive)
GI50 (EKVX): > 100 µM (inactive)
GI50 (HCC 2998): > 100 µM (inactive)
GI50 (HCT-116): > 100 µM (inactive)
GI50 (HOP-18): > 100 µM (inactive)
GI50 (HOP-62): > 100 µM (inactive)
GI50 (HOP-92): > 100 µM (inactive)
GI50 (HT-29): > 100 µM (inactive)
GI50 (IGROV-1): > 100 µM (inactive)
GI50 (K562): > 100 µM (inactive)
GI50 (KM12): > 100 µM (inactive)
GI50 (LOX IMVI): > 100 µM (inactive)
GI50 (LXFL 529): > 100 µM (inactive)
GI50 (M14): > 100 µM (inactive)
GI50 (M19-MEL): > 100 µM (inactive)
GI50 (MOLT-4): > 100 µM (inactive)
GI50 (Malme-3M): > 100 µM (inactive)
GI50 (NCI-H226): > 100 µM (inactive)
GI50 (NCI-H23): > 100 µM (inactive)
GI50 (NCI-H460): > 100 µM (inactive)
GI50 (NCI-H522): > 100 µM (inactive)
GI50 (OVCAR-3): > 100 µM (inactive)
GI50 (OVCAR-4): > 100 µM (inactive)
GI50 (OVCAR-5): > 100 µM (inactive)
GI50 (OVCAR-8): > 100 µM (inactive)
GI50 (RPMI-8226): > 100 µM (inactive)
GI50 (RXF 631): > 100 µM (inactive)
GI50 (SF-268): > 100 µM (inactive)
GI50 (SF-295): > 100 µM (inactive)
GI50 (SF-539): > 100 µM (inactive)
GI50 (SK-MEL-28): > 100 µM (inactive)
GI50 (SK-MEL-2): > 100 µM (inactive)
GI50 (SK-MEL-5): > 100 µM (inactive)
GI50 (SK-OV-3): > 100 µM (inactive)
GI50 (SN12C): > 100 µM (inactive)
GI50 (SNB-19): > 100 µM (inactive)
GI50 (SNB-75): > 100 µM (inactive)
GI50 (SNB-78): > 100 µM (inactive)
GI50 (SR): > 100 µM (inactive)
GI50 (SW-620): > 100 µM (inactive)
GI50 (TK-10): > 100 µM (inactive)
GI50 (U-251): > 100 µM (inactive)
GI50 (UACC-257): > 100 µM (inactive)
GI50 (UACC-62): > 100 µM (inactive)
GI50 (UO-31): > 100 µM (inactive)
GI50 (XF498): > 100 µM (inactive)
